As usually defined, the EC50 is the midpoint of the concentration-response curve.

Common to all, as to assay: two-electrode voltage clamp, Xenopus oocytes
What all share (type): cell-based
For orientation: Two-electrode voltage clamp is typically applied to oocytes expressing channels or transporters.

Assay [1] deals with T1, Cel-AVR-14B (Caenorhabditis elegans, UniProt Q17369).
T1 construct: full-length, expressed singly (cRNA) in Xenopus laevis oocytes; homomeric pentameric GluCl; b70 prints CAA04170 for AVR-14B, which b73 gives to AVR-15B
T1 sequence (Q17369 22-430): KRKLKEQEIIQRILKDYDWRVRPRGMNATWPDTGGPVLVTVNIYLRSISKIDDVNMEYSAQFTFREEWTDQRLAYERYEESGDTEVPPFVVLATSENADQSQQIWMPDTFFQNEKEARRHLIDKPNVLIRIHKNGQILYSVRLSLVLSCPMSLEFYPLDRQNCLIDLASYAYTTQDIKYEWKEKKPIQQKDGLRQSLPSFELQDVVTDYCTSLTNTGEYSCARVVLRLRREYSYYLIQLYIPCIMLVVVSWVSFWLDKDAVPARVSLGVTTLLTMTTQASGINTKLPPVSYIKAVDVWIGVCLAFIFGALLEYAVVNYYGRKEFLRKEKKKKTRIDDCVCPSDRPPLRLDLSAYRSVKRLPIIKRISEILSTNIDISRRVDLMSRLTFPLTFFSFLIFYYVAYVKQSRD

The target of assay [2] is T2, Cel-AVR-14B/GLC-2 (Caenorhabditis elegans, UniProt Q17328+Q17369).
T2 construct: full-length subunits co-expressed 1:1 (cRNA) in Xenopus laevis oocytes; heteromeric, pentameric GluCl, stoichiometry unknown; b70 prints CAA04170 for AVR-14B, which b73 gives to AVR-15B
T2 sequence (Q17369 22-430): T1 sequence (Q17369 22-430)
T2 sequence (Q17328 23-434): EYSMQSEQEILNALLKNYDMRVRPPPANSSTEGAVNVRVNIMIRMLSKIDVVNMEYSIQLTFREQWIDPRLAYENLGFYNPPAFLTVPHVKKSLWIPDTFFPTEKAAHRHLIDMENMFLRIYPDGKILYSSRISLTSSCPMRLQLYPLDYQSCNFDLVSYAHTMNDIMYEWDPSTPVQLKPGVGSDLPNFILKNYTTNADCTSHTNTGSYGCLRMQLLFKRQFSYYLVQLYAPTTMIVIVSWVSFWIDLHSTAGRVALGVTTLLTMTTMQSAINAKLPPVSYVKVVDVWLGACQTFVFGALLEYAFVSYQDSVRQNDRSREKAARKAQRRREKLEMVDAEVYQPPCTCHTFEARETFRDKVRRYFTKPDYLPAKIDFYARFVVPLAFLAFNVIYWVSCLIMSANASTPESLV

The target of assay [3] is T3, Pun-GLC-2/GLC-3 (Parascaris univalens, UniProt A0A894K4V1+A0A894KE58).
T3 construct: full-length subunits co-expressed 1:1 (cRNA) in Xenopus laevis oocytes; heteromeric, pentameric GluCl, stoichiometry unknown
T3 sequence (A0A894KE58 21-448): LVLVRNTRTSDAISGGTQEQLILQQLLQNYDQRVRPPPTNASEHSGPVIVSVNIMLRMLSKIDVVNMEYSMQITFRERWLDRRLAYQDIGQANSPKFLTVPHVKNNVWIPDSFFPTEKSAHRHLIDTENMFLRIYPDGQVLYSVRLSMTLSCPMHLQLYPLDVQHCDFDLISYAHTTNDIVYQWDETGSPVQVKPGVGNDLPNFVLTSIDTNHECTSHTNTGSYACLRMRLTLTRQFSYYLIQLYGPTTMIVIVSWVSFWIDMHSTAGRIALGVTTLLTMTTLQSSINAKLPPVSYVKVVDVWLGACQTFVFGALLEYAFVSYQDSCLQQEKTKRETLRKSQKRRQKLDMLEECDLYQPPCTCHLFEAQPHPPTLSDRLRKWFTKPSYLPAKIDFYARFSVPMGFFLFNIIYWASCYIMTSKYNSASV
T3 sequence (A0A894K4V1 25-485): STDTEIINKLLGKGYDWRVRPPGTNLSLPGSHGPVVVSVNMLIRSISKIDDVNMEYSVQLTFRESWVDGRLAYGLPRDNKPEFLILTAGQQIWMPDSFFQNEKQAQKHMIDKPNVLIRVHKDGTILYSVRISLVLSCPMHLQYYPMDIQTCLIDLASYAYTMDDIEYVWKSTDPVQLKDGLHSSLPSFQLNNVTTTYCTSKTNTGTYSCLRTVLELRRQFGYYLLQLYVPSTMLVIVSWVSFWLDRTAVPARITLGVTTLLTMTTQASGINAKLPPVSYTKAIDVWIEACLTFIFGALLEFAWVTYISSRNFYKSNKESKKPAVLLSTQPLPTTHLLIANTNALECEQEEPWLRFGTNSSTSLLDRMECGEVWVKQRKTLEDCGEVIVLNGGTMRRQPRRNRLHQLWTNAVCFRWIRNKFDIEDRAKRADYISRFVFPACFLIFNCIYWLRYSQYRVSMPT

The target in assay [4] is T4, Cel-GLC-2 (Caenorhabditis elegans, UniProt Q17328).
T4 construct: full-length, expressed singly (cRNA) in Xenopus laevis oocytes; homomeric pentameric GluCl
T4 sequence (Q17328 23-434): T2 sequence (Q17328 23-434)

For assay [5], the target named is T5, Pun-AVR-14B/GLC-2 (Parascaris univalens, UniProt A0A894K7G1+A0A894KE58).
T5 construct: full-length subunits co-expressed 1:1 (cRNA) in Xenopus laevis oocytes; heteromeric, pentameric GluCl, stoichiometry unknown
T5 sequence (A0A894K7G1 19-428): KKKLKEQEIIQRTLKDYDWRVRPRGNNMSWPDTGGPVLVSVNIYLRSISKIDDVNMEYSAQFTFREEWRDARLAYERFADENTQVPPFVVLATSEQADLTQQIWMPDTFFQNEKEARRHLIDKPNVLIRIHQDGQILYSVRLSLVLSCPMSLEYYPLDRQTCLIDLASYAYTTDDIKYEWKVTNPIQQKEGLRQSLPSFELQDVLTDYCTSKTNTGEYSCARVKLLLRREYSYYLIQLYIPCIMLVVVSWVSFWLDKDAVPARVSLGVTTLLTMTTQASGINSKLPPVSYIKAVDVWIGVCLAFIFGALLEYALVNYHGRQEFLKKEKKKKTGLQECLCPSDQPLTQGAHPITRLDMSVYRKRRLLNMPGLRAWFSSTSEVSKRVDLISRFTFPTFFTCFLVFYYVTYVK
T5 sequence (A0A894KE58 21-448): T3 sequence (A0A894KE58 21-448)

Assay [6] addresses T6, Pun-GLC-3 (Parascaris univalens, UniProt A0A894K4V1).
T6 construct: full-length, expressed singly (cRNA) in Xenopus laevis oocytes; homomeric pentameric GluCl
T6 sequence (A0A894K4V1 25-485): T3 sequence (A0A894K4V1 25-485)

Assay [7] has as its target T7, Cel-GLC-2/GLC-3 (Caenorhabditis elegans, UniProt G5EEZ3+Q17328).
T7 construct: full-length subunits co-expressed 1:1 (cRNA) in Xenopus laevis oocytes; heteromeric, pentameric GluCl, stoichiometry unknown
T7 sequence (Q17328 23-434): T2 sequence (Q17328 23-434)
T7 sequence (G5EEZ3 23-484): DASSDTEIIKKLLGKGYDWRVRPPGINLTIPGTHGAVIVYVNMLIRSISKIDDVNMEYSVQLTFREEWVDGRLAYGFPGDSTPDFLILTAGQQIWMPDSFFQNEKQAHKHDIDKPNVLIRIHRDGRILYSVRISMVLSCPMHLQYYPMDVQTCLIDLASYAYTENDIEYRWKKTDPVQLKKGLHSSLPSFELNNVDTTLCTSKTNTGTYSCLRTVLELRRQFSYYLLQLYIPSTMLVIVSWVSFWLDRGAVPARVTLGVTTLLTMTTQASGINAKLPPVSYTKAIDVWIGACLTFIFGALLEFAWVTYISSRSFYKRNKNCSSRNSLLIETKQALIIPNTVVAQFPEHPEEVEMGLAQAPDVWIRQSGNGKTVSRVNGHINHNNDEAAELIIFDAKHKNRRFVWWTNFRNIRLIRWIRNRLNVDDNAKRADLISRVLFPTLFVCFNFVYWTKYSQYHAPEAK

For `N[C@@H](CCC(=O)O)C(=O)O` [glutamate], the EC50 was 112 ± 13 µM in assay [1]; 20.5 ± 1.3 µM in assay [2]; 120 ± 5.7 µM in assay [3]; 215 ± 13.1 µM in assay [4]; 13.6 ± 1.6 µM in assay [5]; 1480 ± 111 µM in assay [6]. The molecule also registered an EC50 in assay [7] of 46.8 ± 3.7 µM.

The record behind these values is doi:10.1101/2020.12.17.423223v1 (biorxiv, 2020).
